Source: patent US20050186587A1, “Method for screening a substance which can suppress degradation of a nuclear receptor or a substance which can promote degradation of a nuclear receptor” (Interite, Inc., priority 2004, published 2005)
One block for each molecule: values may come before it. Where a SMILES comes first, the peptide text is derived from it. The star is where a group is joined. Cbz = O=C(OCc1ccccc1)*

How the values were obtained:
Flag-ERαΔAD = target: T1, Flag-ERαΔAD (Homo sapiens, UniProt P03372); test: Ubiquitination of Flag-ERαΔAD expressed in 293 cells, immune precipitation and anti-ubiquitin Western blotting; type: cell-based; settings: no estrogen added but MG132 added, FIG. 3 lane 3
T1 construct: ERαΔAD (1-534) consisting of amino acids 1 through 534; expressed in transfected cells; host or cells: 293 cells
T1 sequence (P03372 1-534): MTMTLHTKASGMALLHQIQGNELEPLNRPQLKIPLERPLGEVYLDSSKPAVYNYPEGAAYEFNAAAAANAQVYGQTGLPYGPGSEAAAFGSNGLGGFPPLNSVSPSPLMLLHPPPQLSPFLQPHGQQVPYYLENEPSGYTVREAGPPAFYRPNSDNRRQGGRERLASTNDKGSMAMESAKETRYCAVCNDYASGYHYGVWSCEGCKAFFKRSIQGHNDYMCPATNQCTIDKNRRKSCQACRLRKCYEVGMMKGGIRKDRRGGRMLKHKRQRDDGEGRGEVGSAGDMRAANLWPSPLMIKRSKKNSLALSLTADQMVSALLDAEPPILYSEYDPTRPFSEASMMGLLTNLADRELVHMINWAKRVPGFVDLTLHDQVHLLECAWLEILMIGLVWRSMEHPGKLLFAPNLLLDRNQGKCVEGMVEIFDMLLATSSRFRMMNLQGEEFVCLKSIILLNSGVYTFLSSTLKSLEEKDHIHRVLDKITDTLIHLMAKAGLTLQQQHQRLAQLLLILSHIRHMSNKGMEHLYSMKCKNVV
Description: About 50 μg of MCF-7 cell nucleus extract or 293 cell nucleus extract was incubated for 1 hour at 4° C. in 25 mM tris-buffered saline containing 0.1% Tween20 (T-TBS) together with 50 μg of either glutathione sepharose beads or anti-Flag tag antibody beads (Santa Cruz Biotechnology). Beads to which protein had bound were washed 4 times with 25 mM tris-buffered saline containing 0.1% Tween20 and centrifuged for 1 minute at 5000 rpm, and the beads were collected. Protein was eluted from the beads by boiling in loading buffer.
(§1) Western blotting using the respective antibodies was accomplished by well-known methods (Yanagisawa, J. et al, Molecular Cell (2002) March, 9(3):553-562) with some alterations. 10 μg of each extract of MCF-7 cells and 293 cells was isolated by 8% or 10% SDS-PAGE, and transferred to a nitrocellulose membrane. This membrane was incubated for 1 hour in a blocking solution of 1% BSA (bovine serum albumin) and 5% skim milk added to 25 mM tris-buffered saline containing 0.02% Tween20 (T-TBS), and then reacted with the respective antibodies for 1 hour at 25° C. After being washed 3 times for 10 minutes each in 25° C. T-TBS, the membranes were incubated for 1 minute at 25° C. with peroxidase-bound goat anti-mouse antibodies. Protein that reacted with the antibodies was made visible with an Amersham Pharmacia high-sensitivity chemical luminescence detection system (ECL).

ERαΔAD = type: cell-based, human; settings: 293 cells, 1 μM MG132, FIG. 2 lanes 2 and 4
Description: (§2) HeLa cells, human breast cancer-derived MCF-7 cells and human fetal kidney-derived 293 cells were cultured at 37° C. in Dulbecco's modified Eagle's medium (DMEM) containing 10% FCS in humidified air containing 5% (partial pressure) carbon dioxide gas.
(§3) The target DNA was diluted with 100 μL of OptiMEM medium (Life Technologies, Inc.). The amount of DNA was adjusted to a total of 1 μg by addition of blank vector. 10 μL of lipofectamine reagent (Life Technologies, Inc.) was diluted in the same way with 100 μL of OptiMEM medium. After being left at room temperature for 5 minutes, the two liquids were mixed and left for an additional 20 minutes to form a complex. This mixture was then dripped directly onto cells seeded on 12-well plates and cultured to 40-50% confluence in DMEM containing 0.2% FCS treated with activated charcoal, and transfection was performed. 6 hours after transfection normal medium was substituted, and after 24 hours' further culture the ligand was added.
10 μg of each extract of MCF-7 cells and 293 cells was isolated by 8% or 10% SDS-PAGE, and transferred to a nitrocellulose membrane. […] Protein that reacted with the antibodies was made visible with an Amersham Pharmacia high-sensitivity chemical luminescence detection system (ECL). […]

[1] = target: T2, estrogen receptor alpha (ERα) (Homo sapiens, UniProt P03372); test: Amount of ERα in MCF-7 cell nucleus extracts by Western blotting (Test Example 1); type: cell-based; settings: MCF-7 cells, MG132 at 1 μM, both with and without estrogen, FIG. 1(b) lanes 3 and 4
T2 construct: ERα was first purified from MCF-7 cell nucleus extract by immune precipitation; endogenous in cells; host or cells: MCF-7 cells
Description: as §2
10 μg of each extract of MCF-7 cells and 293 cells was isolated by 8% or 10% SDS-PAGE, and transferred to a nitrocellulose membrane. This membrane was incubated for 1 hour in a blocking solution of 1% BSA (bovine serum albumin) and 5% skim milk added to 25 mM tris-buffered saline containing 0.02% Tween20 (T-TBS), and then reacted with the respective antibodies for 1 hour at 25° C. After being washed 3 times for 10 minutes each in 25° C. T-TBS, the membranes were incubated for 1 minute at 25° C. with peroxidase-bound goat anti-mouse antibodies. Protein that reacted with the antibodies was made visible with an Amersham Pharmacia high-sensitivity chemical luminescence detection system (ECL).

[2] = tested on: ERα, ERα(V364E), ERα(C447A), ERαΔAD or ERα(L540Q); test: Amount of normal and mutant ERα protein in 293 cells with proteasome inhibitor (Test Example 8, FIG. 11); type: cell-based, human; settings: MG132 added to the cells, FIG. 11 lanes 1 through 5
Description: CHIP or CHIPΔUbox (a mutant having the ubiquitin ligase activity removed) were made to be expressed in cells already co-expressing normal ERα and a dominant negative mutant of ERα, and the transcriptional activation ability of ERα was measured. […] The amount of ERα in the cell nucleus extract was measured at the same time by Western blotting. ERα(V364E), ERα(C447A), ERαΔAD and ERα(L540Q) were used as the dominant negative mutants of ERα. […] ERαΔAD is a helix 12 deletion mutant, while ERα(L540Q) is a helix 12 single-residue substitution mutant, and the transcriptional activity of both is low because they can no longer bind to transcriptional activation factors. ERαΔAD and ERα(L540Q) are not temperature sensitive.
The amount of protein was also slightly lower in the case of ERαΔAD (See FIG. 11 lane 4).

ERα = target: T3, ERα (Homo sapiens, UniProt P03372); settings: 293 cells, 24 hours, 1 μM OHT or 100 nM ICI (or estrogen), FIG. 7, FIGS. 8(a) and (b)
T3 sequence (P03372 1-595): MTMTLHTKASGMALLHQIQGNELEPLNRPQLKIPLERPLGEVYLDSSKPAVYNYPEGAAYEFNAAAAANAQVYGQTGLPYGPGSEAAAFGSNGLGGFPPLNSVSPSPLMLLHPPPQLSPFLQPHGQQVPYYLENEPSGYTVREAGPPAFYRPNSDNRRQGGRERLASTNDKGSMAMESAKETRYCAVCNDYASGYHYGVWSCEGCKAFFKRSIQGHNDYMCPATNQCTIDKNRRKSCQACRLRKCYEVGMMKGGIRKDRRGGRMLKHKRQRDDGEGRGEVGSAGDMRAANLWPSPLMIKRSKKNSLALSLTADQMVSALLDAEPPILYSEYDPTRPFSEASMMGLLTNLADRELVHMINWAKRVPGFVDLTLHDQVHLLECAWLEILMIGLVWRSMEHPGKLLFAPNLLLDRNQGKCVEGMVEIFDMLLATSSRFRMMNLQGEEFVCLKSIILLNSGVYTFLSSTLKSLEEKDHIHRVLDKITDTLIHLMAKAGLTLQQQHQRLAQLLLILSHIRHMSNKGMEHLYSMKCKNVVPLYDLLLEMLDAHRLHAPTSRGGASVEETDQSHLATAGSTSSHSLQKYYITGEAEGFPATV
Description: as §1

ERα and CHIP = target: T4, ERα and CHIP (Homo sapiens, UniProt P03372); settings: 293 cells, 24 hours, 10 nM estrogen, 1 μM tamoxifen (OHT) or 100 nM fulvestrant (ICI), FIG. 6
T4 sequence (P03372 1-595): T3 sequence (P03372 1-595)
Description: as §3
GST pull-down was performed by well-known methods (Yanagisawa, J. et al, Molecular Cell (2002) March, 9(3):553-562). […]
Western blotting using the respective antibodies was accomplished by well-known methods (Yanagisawa, J. et al, Molecular Cell (2002) March, 9(3):553-562) with some alterations. […] Protein that reacted with the antibodies was made visible with an Amersham Pharmacia high-sensitivity chemical luminescence detection system (ECL). […]

[3] = target: T5, estrogen receptor alpha (ERα), not bound to a ligand, P03372
T5 chain: T3 sequence (P03372 1-595)

Molecule: CC(C)C[C@@H](C=O)NC(=O)[C@H](CC(C)C)NC(=O)[C@H](CC(C)C)NC(=O)OCc1ccccc1 [MG132] (Cbz-Leu-Leu-Leu-aldehyde)
ubiquitinated ERαΔAD (Flag-ERαΔAD-Ub) (Flag-ERαΔAD): strong accumulation of a polyubiquitin protein
degradation of ERαΔAD (ERαΔAD): inhibited
amount of ERα [1]: increased dramatically
amount of expression of mutant ERα versus normal ERα [2]: no difference between the various mutants and normal ERα

degradation of ERα by CHIP (ERα): block degradation of ERα by CHIP
Molecule: C[C@]12CC[C@@H]3c4ccc(O)cc4C[C@@H](CCCCCCCCC[S+]([O-])CCCC(F)(F)C(F)(F)F)[C@H]3[C@@H]1CC[C@@H]2O (some centres unmarked) [fulvestrant]
co-precipitation of ERα with CHIP (ERα and CHIP): co-precipitated with CHIP only when cultured without the addition of a ligand

B1: CHIP (carboxyl-terminus of Hsc70 interacting protein) (protein)
chain: MKGKEEKEGGARLGAGGGSPEKSPSAQELKEQGNRLFVGRKYPEAAACYGRAITRNPLVAVYYTNRALCYLKMQQHEQALADCRRALELDGQSVKAHFFLGQCQLEMESYDEAIANLQRAYSLAKEQRLNFGDDIPSALRIAKKKRWNSIEERRIHQESELHSYLSRLIAAERERELEECQRNHEGDEDDSHVRAQQACIEAKHDKYMADMDELFSQVDEKRKKRDIPDYLCGKISFELMREPCITPSGITYDRKDIEEHLQRVGHFDPVTGSPLTQEQFIPNLAMKEVIDAFISENGWVEDY
amount of degradation of ERαΔAD measured by Western blotting (ERαΔAD, P03372): both ERαΔAD and ERα were strongly degraded when estrogen was not added (see FIG. 7, lane 3). This degradation increased when the expressed amount of CHIP was increased
amount of degradation of ERα measured by Western blotting [3]: both ERαΔAD and ERα were strongly degraded when estrogen was not added (see FIG. 7, lane 3). This degradation increased when the expressed amount of CHIP was increased
